Assay results published in patent US20110212885A1, “OPHTHALMIC AND CONTACT LENS SOLUTIONS CONTAINING PEPTIDES AS PRESERVATIVE” (priority 2003, published 2011).
Like-named read-outs stand apart in the source and are kept apart here. Non-standard residues stand in square brackets, D forms with d. Residues, ends and D or L forms follow the SMILES beside them. No end group written: not given here.

Experiments:
Assay type in all cases: cell-based
[1] = tested on: Candida albicans (ATCC 10231); conditions: 1 hour exposure; for average cfu/mL: C. albicans, peptide 100 ug/mL in water; for biocidal effect on C. albicans (in words): 100 ug/mL in water
Method: (§1) Peptides were tested using a conventional Disinfection Efficacy antimicrobial assay (ISO 14729), commonly used in evaluating biocidal efficacy of preservatives for use in contact lens care solutions. Briefly, a known concentration of organisms are inoculated into the test solution, and allowed to incubate for a given amount of time, after which they are neutralized to inactivate the preservative. Samples are serially diluted and plated in duplicate onto petri plates onto which growth medium is poured. The plates are incubated at 35° C. (bacteria) or 25° C. (yeast and molds) for 48 hours. The average number of colony forming units is determined on countable plates (the dilution at which between 30 to 300 cfu/plate are observed, except when colonies are observed only on the −1 dilution plates). The log reduction resulting from exposure to the test solution is calculated based on the growth of positive controls plated simultaneously. Recovery controls, to confirm that the test solution is neutralized, and viability controls are also plated.
Method: Candida albicans (ATCC 10231) stock cultures were incubated and prepared to result in cell suspensions containing between 10^7 and 10^8 cfu/mL. The Disinfection Efficacy test, as described above, was used, with the following modification: Since the standard Dey-Engley broth used to neutralize preservatives was not necessarily expected to neutralize the peptide, 0.1% sodium laurel sulfate (SLS) was added to the neutralization solution. Controls confirmed that this was effective in neutralizing the peptide test solution.
(§2) Method: The Disinfection Efficacy test was used with the following organisms: Staphylococcus aureus (ATCC 6538), Pseudomonas aeruginosa (ATCC 9027), Serratia marcesens (ATCC 13880), Candida albicans (ATCC 10231), and Fusarium solani (ATCC 36031). The peptides were diluted in water at a concentration of 100 ug/mL (adjusted for purity). Organism cultures were prepared to result in an inoculum concentration between 10^7 and 10^8 cfu/mL. The test solutions were inoculated for a 1 hour and a 3 hour exposure period, neutralized with DEB with 0.1% SLS added, and plated in duplicate.

[2] = tested on: Pseudomonas aeruginosa (ATCC 9027); conditions: for lowest concentration giving complete kill of P. aeruginosa: Experiment 3, tested 100 to 1 ug/mL in water; for average cfu/mL: P. aeruginosa; for biocidal effect on P. aeruginosa (in words): 100 ug/mL in water
Method: as §1, §2
(§3) Method: The Disinfection Efficacy test was used as in experiment 2 using Staphylococcus aureus and Pseudomonas aeruginosa. The peptides were diluted in water at concentrations of 100, 33.3, 10, 3.33, and 1 ug/mL. The test solutions were inoculated for 1 hour, neutralized, and plated in duplicate.

[3] = tested on: Staphylococcus aureus (ATCC 6538); conditions: for concentration giving complete kill of S. aureus: tested 100 to 1 ug/mL in water; for average cfu/mL: S. aureus; for biocidal effect on S. aureus (in words): 100 ug/mL in water
Method: as §1, §2, §3

[4] = tested on: Serratia marcesens (ATCC 13880); conditions: 1 hour exposure; for average cfu/mL: S. marcescens, peptide 100 ug/mL in water; for biocidal effect on S. marcescens (in words): 100 ug/mL in water
Method: as §1, §2

[5] = tested on: Fusarium solani (ATCC 36031); conditions: 1 hour exposure; for average cfu/mL: F. solani, peptide 100 ug/mL in water; for biocidal effect on F. solani (in words): 100 ug/mL in water
Method: as §1, §2

[6] = T = 1 hr, Conc. 1 μg/mL in water
[7] = T = 1 hr, Conc. 3.33 μg/mL in water
[8] = T = 1 hr, Conc. 10 μg/mL in water
[9] = T = 1 hr, Conc. 33 μg/mL in water
[10] = T = 1 hr, Conc. 100 μg/mL in water
[11] = peptide 100 ug/mL in water, 1 hour exposure

Compound | average cfu/mL [1] [cfu/mL] | lowest concentration giving complete kill of P. aeruginosa ([2]; 1 hour exposure) [µg/mL] | average cfu/mL [2, 6] [cfu/mL] | average cfu/mL [2, 7] [cfu/mL] | average cfu/mL [2, 8] [cfu/mL] | average cfu/mL [2, 9] [cfu/mL] | average cfu/mL [2, 10] [cfu/mL] | average cfu/mL [2, 11] [cfu/mL] | concentration giving complete kill of S. aureus ([3]; Experiment 3, 1 hour exposure) [µg/mL] | average cfu/mL [3, 6] [cfu/mL] | average cfu/mL [3, 7] [cfu/mL] | average cfu/mL [3, 8] [cfu/mL] | average cfu/mL [3, 9] [cfu/mL] | average cfu/mL [3, 10] [cfu/mL] | average cfu/mL [3, 11] [cfu/mL] | average cfu/mL [4] [cfu/mL] | average cfu/mL [5] [cfu/mL] | biocidal effect on C. albicans (in words) [1] | biocidal effect on P. aeruginosa (in words) ([2]; 1 hour exposure) | biocidal effect on S. aureus (in words) ([3]; 1 hour exposure) | also measured
FKLRAKIKVRLRAKIKL [D4E1] | 0.00E+00 | 1 | 1.00E+01 | 0.00E+00 | 0.00E+00 | 5.00E+00 | 0.00E+00 | 0.00E+00 | 1 | 5.00E+00 | 0.00E+00 | 0.00E+00 | 0.00E+00 | 0.00E+00 | 0.00E+00 | 0.00E+00 | 0.00E+00 | – | – | – | –
AKRHHGYKRKFH-NH2 [P-113] | 5.51E+03 | 3.33 | 3.90E+02 | 5.00E+00 | 1.50E+01 | 0.00E+00 | 0.00E+00 | 6.00E+01 | – | 5.95E+04 | 1.44E+05 | 2.02E+05 | 3.40E+05 | 3.80E+05 | 6.10E+05 | 4.00E+05 | 6.00E+03 | effective | effective | no effect | effectiveness against S. aureus (in words) ([3]; Experiment 3, 1 hour exposure, 100 to 1 ug/mL in water): not effective; biocidal effect on S. marcescens (in words) [4]: no effect; biocidal effect on F. solani (in words) [5]: effective
FAKKFAKKFKKFAKKFAKFAFAF [D2A21] | 0.00E+00 | 1 | 0.00E+00 | 0.00E+00 | 0.00E+00 | 0.00E+00 | 0.00E+00 | 0.00E+00 | 3.33 | 1.12E+03 | 0.00E+00 | 1.00E+01 | 0.00E+00 | 0.00E+00 | 0.00E+00 | 0.00E+00 | 0.00E+00 | – | – | – | –
C[C@@H](N)C(=O)N[C@H](CCCCN)C(=O)N[C@H](CCCNC(=N)N)C(=O)N[C@H](Cc1c[nH]cn1)C(=O)N[C@H](Cc1c[nH]cn1)C(=O)NCC(=O)N[C@H](Cc1ccc(O)cc1)C(=O)N[C@H](CCCCN)C(=O)N[C@H](CCCNC(=N)N)C(=O)N[C@H](CCCCN)C(=O)N[C@H](Cc1ccccc1)C(=O)N[C@H](Cc1c[nH]cn1)C(N)=O [P113D] (H-[dA][dK][dR][dH][dH]G[dY][dK][dR][dK][dF][dH]-NH2; N-terminus and C-terminus assumed) | 3.30E+03 | – | – | – | – | – | – | 2.00E+01 | – | – | – | – | – | – | 4.70E+05 | 2.80E+05 | 6.40E+03 | effective | effective | no effect | biocidal effect on S. marcescens (in words) [4]: no effect; biocidal effect on F. solani (in words) [5]: effective
